Type in all cases: cell-based
Assay [1] has as its target T1, recombinant TASK-3 (Homo sapiens (Human), UniProt Q9NPC2). The assay can be described thus: Inhibition of recombinant TASK-3 in stably transfected CHO cells (KCl-induced depolarization, voltage-sensitive dye, FLIPR). As to conditions: depolarization induced by 40 mM potassium chloride, some mean values from multiple determinations.
Assay [2] addresses T2, recombinant TASK-1 (Homo sapiens (Human), UniProt O14649). The assay is described as follows: Inhibition of recombinant TASK-1 in stably transfected CHO cells (KCl-induced depolarization, voltage-sensitive dye, FLIPR). To be noted: depolarization induced by 40 mM potassium chloride, some mean values from multiple determinations.
The target in assay [3] is T2, recombinant TASK-1. The assay can be described thus: Two-electrode voltage clamp analysis of human TASK-1 channel expressed in Xenopus laevis oocytes. To be noted: TASK-1 IC50, human TASK-1 in Xenopus laevis oocytes. As to the method:
(§1) Xenopus laevis oocytes were selected as described elsewhere by way of illustration [Decher et al., FEBS Lett. 492, 84-89 (2001)]. […] For the electrophysiological analysis of the channel proteins expressed in the oocytes, the two-electrode voltage clamp technique [Stühmer, Methods Enzymol. 207, 319-339 (1992)] was used. The measurements were conducted as described [Decher et al., FEBS Lett. 492, 84-89 (2001)] at room temperature (21-22° C.) using a Turbo TEC 10CD amplifier (NPI), recorded at 2 kHz and filtered with 0.4 kHz. Substance administration was performed using a gravitation-driven perfusion system. Here, the oocyte is located in a measuring chamber and exposed to the solvent stream of 10 ml/min. The level in the measuring chamber is monitored and regulated by sucking off the solution using a peristaltic pump.

Assay [4] deals with T1, recombinant TASK-3. The assay can be described thus: Two-electrode voltage clamp analysis of human TASK-3 channel expressed in Xenopus laevis oocytes. To be noted: TASK-3 IC50, human TASK-3 in Xenopus laevis oocytes. As to the method:
as §1
(In two-electrode clamp one electrode senses voltage and the other passes current.)

In patent US11208422B2, “Substituted bridged diazepane derivatives and use thereof as TASK-1 and TASK-3 inhibitors” (Bayer Pharma Aktiengesellschaft, priority 2017, dated 2021) one finds IC50 data, which are given here for three compounds.

The structures appear in SMILES notation.

Usually IC50 stands for the point on the concentration scale where inhibition reaches its midpoint.

T2 sequence (O14649 whole entry): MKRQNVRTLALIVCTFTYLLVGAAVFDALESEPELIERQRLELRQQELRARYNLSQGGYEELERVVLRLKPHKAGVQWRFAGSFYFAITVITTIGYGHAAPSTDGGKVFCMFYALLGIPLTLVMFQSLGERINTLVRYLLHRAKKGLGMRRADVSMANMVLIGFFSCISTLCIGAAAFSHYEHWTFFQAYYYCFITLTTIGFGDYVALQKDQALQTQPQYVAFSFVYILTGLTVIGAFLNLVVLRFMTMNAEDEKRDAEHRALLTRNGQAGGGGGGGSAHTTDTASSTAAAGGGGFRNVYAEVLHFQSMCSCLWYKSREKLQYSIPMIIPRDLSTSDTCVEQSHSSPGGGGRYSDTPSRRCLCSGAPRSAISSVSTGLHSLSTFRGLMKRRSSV
T1 sequence (Q9NPC2 whole entry): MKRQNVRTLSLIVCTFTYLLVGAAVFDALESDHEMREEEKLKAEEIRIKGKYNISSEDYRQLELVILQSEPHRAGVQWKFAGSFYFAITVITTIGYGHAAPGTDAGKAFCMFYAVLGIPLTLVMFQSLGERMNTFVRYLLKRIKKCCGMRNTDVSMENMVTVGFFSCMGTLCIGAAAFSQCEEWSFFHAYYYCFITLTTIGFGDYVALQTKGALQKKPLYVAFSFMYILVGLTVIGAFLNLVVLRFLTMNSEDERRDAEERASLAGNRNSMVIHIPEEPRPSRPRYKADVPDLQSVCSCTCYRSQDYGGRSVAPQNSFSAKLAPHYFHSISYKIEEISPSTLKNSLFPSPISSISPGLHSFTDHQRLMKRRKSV

`COc1ccc(F)c(C(=O)N2C3CCN(Cc4c(-c5ccc(Cl)cc5)nc5ccccn45)CC2COC3)n1` (single isomer, unassigned) [Example 11]: the concentration for half-maximal inhibition (IC50) at recombinant TASK-3 [1] is 1.1 nM; at recombinant TASK-1 [2], 113 nM; on recombinant TASK-1 [3], 11.4 ± 2.2 nM; on recombinant TASK-3 [4], 4.8 ± 0.4 nM.
The like results for `COc1ccc(F)c(C(=O)N2C3CCN(Cc4c(-c5ccc(Cl)cc5)nc5ccccn45)CC2COC3)n1` (single isomer, unassigned) [Example 12] were, in that order, 2.5 nM, 60.5 nM, 17.6 ± 2.2 nM and 13 ± 0.9 nM.
Take `COc1ccc(F)c(C(=O)N2C3CCC2CN(Cc2c(-c4ccc(Cl)cn4)nc4ccccn24)CC3)n1` (single isomer, unassigned) [Example 15, [3-{[2-(5-Chloropyridin-2-yl)imidazo[1,2-a]pyridin-3-yl]methyl}-3,9-diazabicyclo[4.2.1]non-9-yl](3-fluoro-6-methoxypyridin-2-yl)methanone]: the IC50 is 7.3 nM on recombinant TASK-3 [1], 250 nM on recombinant TASK-1 [2], 7.54 ± 1.4 nM on recombinant TASK-1 [3] and 15.5 ± 1.5 nM on recombinant TASK-3 [4].
